Key:
[1] = target: T1, Fatty-acid amide hydrolase 1 (Homo sapiens, UniProt O00519); assay: Inhibition of human FAAH-mediated hydrolysis of [3H]AEA
T1 sequence (O00519 whole entry): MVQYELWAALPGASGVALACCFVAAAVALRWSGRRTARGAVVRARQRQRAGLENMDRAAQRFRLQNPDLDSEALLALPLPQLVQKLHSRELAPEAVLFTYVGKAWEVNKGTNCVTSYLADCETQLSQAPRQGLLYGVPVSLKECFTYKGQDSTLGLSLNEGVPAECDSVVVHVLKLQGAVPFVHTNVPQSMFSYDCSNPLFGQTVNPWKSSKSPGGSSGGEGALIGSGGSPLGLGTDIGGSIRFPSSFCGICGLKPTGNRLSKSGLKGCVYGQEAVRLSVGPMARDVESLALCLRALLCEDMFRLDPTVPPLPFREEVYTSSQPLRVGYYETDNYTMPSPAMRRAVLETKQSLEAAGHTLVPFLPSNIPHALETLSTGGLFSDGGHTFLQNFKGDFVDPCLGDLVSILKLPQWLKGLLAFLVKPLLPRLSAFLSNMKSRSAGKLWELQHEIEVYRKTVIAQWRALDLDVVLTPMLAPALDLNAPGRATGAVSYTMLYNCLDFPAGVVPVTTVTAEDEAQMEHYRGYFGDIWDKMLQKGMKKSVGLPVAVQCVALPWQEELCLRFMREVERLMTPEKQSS

[2] = target: T2, Fatty-acid amide hydrolase 1 (Rattus norvegicus) (UniProt P97612); assay: Inhibition of rat FAAH at 10 uM
T2 sequence (whole entry): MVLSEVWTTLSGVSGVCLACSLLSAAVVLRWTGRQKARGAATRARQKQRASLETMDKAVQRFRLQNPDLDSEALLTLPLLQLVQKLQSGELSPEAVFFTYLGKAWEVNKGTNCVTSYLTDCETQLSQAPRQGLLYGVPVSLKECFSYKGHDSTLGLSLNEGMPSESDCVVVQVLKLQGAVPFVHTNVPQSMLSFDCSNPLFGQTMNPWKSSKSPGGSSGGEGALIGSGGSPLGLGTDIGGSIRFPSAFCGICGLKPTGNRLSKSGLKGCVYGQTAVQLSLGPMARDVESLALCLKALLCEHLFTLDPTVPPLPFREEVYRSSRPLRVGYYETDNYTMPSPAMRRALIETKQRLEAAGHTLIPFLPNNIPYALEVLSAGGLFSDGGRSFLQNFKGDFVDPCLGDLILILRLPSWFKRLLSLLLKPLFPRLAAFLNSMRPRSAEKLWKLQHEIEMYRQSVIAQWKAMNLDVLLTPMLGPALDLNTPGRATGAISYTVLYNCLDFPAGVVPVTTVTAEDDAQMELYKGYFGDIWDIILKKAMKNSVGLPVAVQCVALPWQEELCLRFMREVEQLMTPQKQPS

[3] = target: T1, Fatty-acid amide hydrolase 1; assay: Inhibition of human FAAH
[4] = Toxicity in rat; format: organism-based; settings: in vivo
[5] = target: T3, Fatty-acid amide hydrolase 1 (Rattus norvegicus, UniProt P97612); assay: Inhibition of rat FAAH
T3 sequence (P97612 whole entry): T2 sequence (whole entry)

Row | inhibition [2] [%] | Structure (SMILES) | IC50 [1] [nM] | IC50 [3] [nM] | LD50 [4] [mg/kg] | IC50 [5] [nM]
1 | 50 | CCNC(=O)N1CCN(CCCC(c2ccc(F)cc2)c2ccc(F)cc2)CC1 [AMPEROZIDE] | 455 | 1340 |  | 
2 |  | COC(=O)Nc1cccc(OC(=O)Nc2cccc(C)c2)c1 | 152 | 377 | > 8000 | 77

Reference: ChEMBL document CHEMBL1154381, “Mining biologically-active molecules for inhibitors of fatty acid amide hydrolase (FAAH): identification of phenmedipham and amperozide as FAAH inhibitors” (Bioorg Med Chem Lett, 2009)
